This is an account of results in patent publication US20030232906A1, “Stabilized coating compositions containing isothiazolone” (priority 2002, published 2003).

The format of this data set is physicochemical. Particulars: for retention of 2-n-octyl-3-isothiazolone active ingredient after 14 days: 1% solution in 95% propylene glycol/5% water, pH 10.0-10.1 (NaOH), no metal salt stabilizers. How it is done:
A 2-n-octyl-3-isothiazolone solution (1%) was prepared in 95% propylene glycol/5% water and the pH was adjusted to 10.0-10.1 with NaOH; no metal salt stabilizers were added to the mixture. Samples of this mixture were then stored at ambient temperature (approximately 25° C.) and also in an oven at 40° C. After 14 days, there was no loss of 2-n-octyl-3-isothiazolone active ingredient (100% retention) for samples stored at either 25° C. or 40° C.

Where two headings read alike, the source gives them in different places.

With `CCCCCCCCn1sccc1=O` [2-n-octyl-3-isothiazolone, 2-n-Octyl-3-isothiazolone], the “stability at high pH in the absence of amines (in words)” value is “stable”. In addition, the “retention of 2-n-octyl-3-isothiazolone active ingredient after 14 days” value (40° C.) came to 100%. For the same compound, the “retention of 2-n-octyl-3-isothiazolone active ingredient after 14 days” value (approx. 25° C.) came out at 100%.
